According to patent US20060165641A1, “Cosmetic compositions containing combinations of hydroxamate derivatives and antioxidants in a liposomal delivery system” (priority 2005, published 2006):
“And” between values parts separate entries of the source, which are not always exact repeats. Equal values may be shown once. “Also recorded” adds a separate entry of the source. Read-outs that look alike come from different tables or passages of the source.

Assays:
[1] = molecular target: MMP-9 (also known as gelatinase) (Homo sapiens, UniProt P14780); assay: MMP inhibition, fluorogenic peptide assay; conditions: for MMP-9 inhibitory activity (in words): fluorogenic peptide assay
Protocol: In this system, the substrate is a fluorogenic peptide which, when cleaved by the MMP, undergoes an increase in fluorescence. The reaction is followed by monitoring the increase in the fluorescence of the reaction mixture for 2 hours. The rate of fluorescence increase is a measure of the reaction rate. The assay is performed in microtiter plates using triplicate wells per condition. The test sample contains specific MMP and the putative MMP inhibitor at several concentrations and the mean rate of the reaction at each of these conditions is compared to the reaction rate in the absence of inhibitor. The concentration of the test sample that inhibits the reaction rate (i.e., MMP inhibition) by 50% is defined as the “50% Inhibitory Concentration” or IC50.

[2] = test system: AP-1 transcription factor; conditions: keratinocyte cell line HaCaT; very low levels; cited from earlier work
[3] = Singlet oxygen scavenging test (Rose Bengal / iodide); conditions: % inhibition of control; compared with Coenzyme Q10 and green tea polyphenols
Protocol: Singlet forms of molecular oxygen are excited electronic configurations that are more reactive than the spin-restricted ground state. These forms can be generated in tissues by a variety of mechanisms. Particularly relevant to the skin is light-induced production of singlet oxygen. The singlet oxygen scavenging test is performed by irradiation of a reaction mixture that contains a photosensitizer dye (Rose Bengal) and iodide ions. The excited dye transfers its energy to ground state oxygen to generate singlet oxygen which in turn oxidizes iodide to I3^−. Production of I3^− is followed spectrophotometrically at 355 nm. If a test sample is a singlet oxygen quencher, it will decrease the rate of I3^− production.

[4] = Hydroxyl radical scavenging (Fenton reaction, terephthalic acid); conditions: compared with green tea polyphenols, glutathione, vitamin E
Protocol: Hydroxyl radical scavenging of NDGA was measured by generation of .OH via the Fenton reaction with terephthalic acid as oxidizable substrate. Hydroxylation of terephthalic acid results in production of a fluorescent product. The rate of the reaction is determined by measuring the time course of fluorescence increase. If a test sample is a hydroxyl radical scavenger, it will decrease the reaction rate.
FIG. 6 is a table displaying hydroxyl radical scavenging activity of NDGA in comparison with green tea polyphenols (GTP) and Vitamin E, indicated in the left column.

MMP 13 [5] = conditions: human chondrosarcoma cell line SW1353; cited from earlier work
[6] = UV-induced lipid peroxidation of lecithin liposomes (malonaldehyde); conditions: relative to EGCG taken as 100%
Protocol: The ability of NDGA to prevent UV-induced lipid peroxidation was measured in comparison to other antioxidant industry standards such as vitamin E, vitamin C and green tea polyphenols. The assay was performed by irradiating a suspension of lecithin liposomes with UV light for 4 hours, in the absence or in the presence of the different compounds. Malonaldehyde levels (a breakdown product of oxidized lipids) were measured in aliquots of the reaction mixture at different times. The rate of lipid oxidation was calculated from the increase in malonaldehyde content. Relative potency was calculated by taking epigallocatechin gallate (EGCG) as 100%. The antioxidant used in the comparisons are listed in the left column. The middle column lists the effective concentration at which the compound is 50% effective (EC 50) for inhibition of lipid peroxidation, while the right column lists the relative potency of the samples, as compared to polyphenol of tea, which is taken as 100.

[7] = test system: normal human keratinocytes; assay: UVB-induced TNF-α production by keratinocytes (ELISA, normalized to MTT viability); conditions: UVB 35 mJ/cm2, 24 hrs; low concentrations of NDGA
MMP 13 [8] = conditions: primary human chondrocytes; cited from earlier work
fibroblasts [9] = assay: Integrin expression of fibroblasts (ELISA); format: cell-based; conditions: 48 hrs
Protocol: (§1) In addition, SHA stimulates collagen and integrin synthesis of keratinocytes and fibroblasts. This was measured by treating keratinocyte or fibroblast cultures with SHA for 48 hrs and testing the medium for collagen and integrin secretion using appropriate antibodies using commercially available ELISA kits. The ELISA measures the secretion of collagen-1 and three different types of integrins, integrin alpha-2, -3 and -5. […] The data, presented in the right column, are expressed as a % stimulation of collagen secretion as compared to the control. […] Stimulation of collagen synthesis would provide more integrity to the dermis and would benefit in reducing wrinkles and will provide anti-aging benefits.
(§2) SHA can also stimulate integrin expression of fibroblasts and keratinocytes. […] In each table, that left column lists the various concentrations of SHA used in the tests, while the three right columns present integrin expression data, for different varieties of integrin, expressed as a % stimulation with respect to the control (0 mM SHA). […] Integrin is a vital component of the cell extracellular matrix that helps in cell adhesion and attachment. The increased amount of integrin helps cells to attach and grow, making skin firmer and more cellular. […]

fibroblasts [10] = assay: Fibroblast collagen-1 secretion (ELISA); format: cell-based; conditions: 0.1 mM SHA, 48 hrs
Protocol: as §1

[11] = test system: normal human keratinocytes; assay: UVB-induced PGE2 production by keratinocytes (ELISA, normalized to MTT viability); format: cell-based; conditions: UVB 30 mJ/cm2; SHA at as low as 5 uM
Protocol: The anti-inflammatory effect of SHA was measured by pretreating normal human keratinocytes with different concentrations of SHA for 24 hrs. The cells were UVB irradiated with a single sub-lethal dose of 30 mJ/cm2 using a Phillips TL20W12 tube. Cells were further incubated for 24 hrs with SHA and prostaglandin E2 (PGE2) levels in the supernatant media samples were analyzed by ELISA. 20 uM indomethacin was included as a positive control as an anti-inflammatory agent. The cell viability was also tested at the end of the 24 hr incubation period using the MTT metabolism method. […] The data was expressed as PGE2 production normalized to cell viability. PGE2, or prostaglandin E2, is an inflammatory mediator produced during inflammatory reactions in the skin. Any agents that inhibit the production of PGE2 will therefore have a beneficial effect of preventing inflammation (in other words, an anti-inflammatory effect). The top three bars display the effect of SHA at various concentrations on the UVB irradiated cells, the 4th bar the effect of indomethscin, the 5th bar the effect of UVB radiation on untreated cells, while the bottom bar is a control (untreated cells, not UVB irradiated).

keratinocytes = assay: Integrin expression of keratinocytes (ELISA); format: cell-based; conditions: 48 hrs
Protocol: as §1, §2

[12] = test system: normal human keratinocytes; assay: Cornified envelope formation / differentiation of keratinocytes; format: cell-based; conditions: 0.15 mM calcium medium; relative to high calcium (1 mM) cultures
Protocol: To measure the induction of differentiation of keratinocytes, cultures of normal human keratinocytes were incubated with medium containing 0.15 mM calcium (low calcium prevents CE formation and keeps cells in growth mode). The cells were treated with different amounts of SHA and the amount of the highly cross-linked, detergent insoluble CE formation was quantified after dissolving the cells in 2% SDS/20 mM Dithiothrietol (DTT). The insoluble CE was centrifuged, resuspended in water and the optical density of the turbid solution was measured at 400 nm. The increase in turbidity indicates increased CE formation. […] The results, presented in the right column, are expressed relative to high calcium (1 mM) containing cultures.

mushroom tyrosinase = assay: Inhibition of mushroom tyrosinase (tyrosine to DOPAchrome, OD475); format: biochemical
Protocol: The skin lightening effect of SHA was determined by measuring the inhibition of tyrosinase since tyrosinase is the enzyme that catalyzes the rate limiting steps in melanin synthesis. Inhibition of mushroom tyrosinase was assayed by measuring conversion of tyrosine to DOPAchrome (OD475) in the presence of varying concentrations of test sample. […] Thirty nanomolar SHA inhibited over 30% of the activity. The IC50 is 60 nM.

Chain of MMP-9 (also known as gelatinase) (P14780 94-707, species assumed): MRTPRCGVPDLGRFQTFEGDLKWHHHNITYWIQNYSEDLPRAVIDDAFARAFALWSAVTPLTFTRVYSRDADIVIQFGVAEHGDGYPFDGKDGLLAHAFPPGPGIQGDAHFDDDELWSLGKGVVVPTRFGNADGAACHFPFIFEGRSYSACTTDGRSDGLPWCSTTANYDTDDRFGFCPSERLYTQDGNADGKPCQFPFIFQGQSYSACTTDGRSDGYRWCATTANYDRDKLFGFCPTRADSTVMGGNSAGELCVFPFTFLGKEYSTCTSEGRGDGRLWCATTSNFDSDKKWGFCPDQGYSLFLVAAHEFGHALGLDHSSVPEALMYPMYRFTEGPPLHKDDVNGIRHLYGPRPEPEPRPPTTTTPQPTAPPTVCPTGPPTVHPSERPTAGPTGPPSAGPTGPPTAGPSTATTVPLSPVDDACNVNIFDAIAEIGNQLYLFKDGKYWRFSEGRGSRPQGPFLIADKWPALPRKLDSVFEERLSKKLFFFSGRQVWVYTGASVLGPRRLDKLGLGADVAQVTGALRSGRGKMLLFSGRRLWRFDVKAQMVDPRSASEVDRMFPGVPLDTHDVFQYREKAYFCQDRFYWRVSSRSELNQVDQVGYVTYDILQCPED

Compound | MMP-9 inhibitory activity (in words) [1] | IC50 ([1]; IC50 MMP-9 inhibition, fluorogenic peptide, 2 hours) | inhibition of AP-1 activation [2] | singlet oxygen scavenging activity [3] | hydroxyl radical scavenging activity [4] | inhibition of TNF-α induced MMP 13 mRNA and protein induction (MMP 13 [5]) | relative potency, inhibition of lipid peroxidation [6] | TNF alpha production normalized to cell viability [7] | inhibition of TNF-α induced MMP 13 mRNA and protein induction (MMP 13 [8]) | integrin expression (alpha-2, -3, -5) vs control (fibroblasts [9]) | stimulation of collagen secretion compared to control (fibroblasts [10]) | PGE2 production normalized to cell viability (anti-inflammatory effect) [11] | integrin expression (alpha-2, -3, -5) vs control (keratinocytes) | cornified envelope formation (terminal differentiation) [12] | IC50 (mushroom tyrosinase) | inhibition of tyrosinase activity (mushroom tyrosinase; Thirty nanomolar SHA)
NC(Cc1c[nH]c2ccccc12)C(=O)NO (stereo not drawn) [tryptophan hydroxamate] | excellent and potent inhibitors of matrix metalloproteases |  |  |  |  |  |  |  |  |  |  |  |  |  |  | 
CC(Cc1ccc(O)c(O)c1)C(C)Cc1ccc(O)c(O)c1 (stereo not drawn) [NDGA, nordihydroguaiaretic acid] | very high MMP-9 inhibitory activity | ~232 µM and ~100 µM | at very low levels inhibits AP-1 activation | very powerful singlet oxygen scavenger, equivalent to green tea polyphenols and better than coenzyme Q10 | slightly more effective than green tea polyphenols and far more potent than glutathione or vitamin E | inhibits TNF-α induced MMP 13 mRNA and protein induction | twice as potent as the next most effective antioxidant (EGCG); also recorded: two orders of magnitude more potent than the vitamin E varieties | effectively blocked UVB-induced inflammation in keratinocytes; also recorded: much more effective than dexamethasone or green tea polyphenols | inhibits TNF-α induced MMP 13 mRNA and protein induction |  |  |  |  |  |  | 
O=C(NO)c1ccccc1O [SHA, Salicylhydroxamate] | excellent and potent inhibitors of matrix metalloproteases |  |  |  |  |  |  |  |  | increasing the integrin expression of keratinocytes and fibroblasts | significantly stimulated the collagen synthesis of fibroblasts | potent anti-inflammatory effects | increasing the integrin expression of keratinocytes | induces terminal differentiation of keratinocytes, increases the formation of CE | 0.06 µM | over 30%
